In publication PMC9012168 (BioProcess international, 2018):
Starred links: 1 amine or outer side, 2 acyl side, 3 side chain; linkers in the order of their positions; H or OH if unused. Positions of bridges follow the written chain, without caps; N, C: chain ends. Non-standard residues stand in square brackets, D forms with d. Residues, ends and D or L forms follow the SMILES beside them. Chains are numbered I, II in the order given. Actinocin(9to1) = Cc1c2oc3c(C)ccc(C(=O)[*:1])c3nc-2c(C(=O)[*:2])c(N)c1=O; NMeV = CN[C@H](C(=O)O)C(C)C; Sar = CNCC(=O)O

Assay: in vitro
Type: cell-based
Settings: human

For Cc1c2oc3c(C)ccc(C(=O)N[C@@H]4C(=O)N[C@H](C(C)C)C(=O)N5CCC[C@H]5C(=O)N(C)CC(=O)N(C)[C@@H](C(C)C)C(=O)O[C@@H]4C)c3nc-2c(C(=O)N[C@@H]2C(=O)N[C@H](C(C)C)C(=O)N3CCC[C@H]3C(=O)N(C)CC(=O)N(C)[C@@H](C(C)C)C(=O)O[C@@H]2C)c(N)c1=O [dactinomycin] (I: T[dV]P[Sar][NMeV] / II: T[dV]P[Sar][NMeV]; ester I:1-I:C, II:1-II:C; linker I:N-II:N via Actinocin(9to1)), the IC50 was 8.5 nM.
